The source of these data is US8735423B2, “Bicyclic compounds as α4β2 nicotinic acetylcholine receptor ligands” (priority 2009, dated 2014).

Where two headings read alike, the source gives them in different places.

For one data set, the system named is High Fat Fed Rats. Kind of data set: Effect of Test Compounds on Body Weight Gain in High Fat Fed Rats. It counts as in vivo, rat. Particulars: high fat diet fed Sprague Dawley rats, oral for 14 days. The text has this: Effect of Test Compounds on Body Weight Gain in High Fat Fed Rats
The body weight gain suppressing properties of compounds of this invention were studied using a animal model of obesity.
Male Sprague Dawley rats (150-160 grams) obtained from Reliance Life Sciences, India were used as experimental animals. Rats were fed with control diet (normal pellet diet) and lard based high fat diet (45% kcal diet) for 7-8 weeks. High fat diet fed animals was randomized according to their body weights. The animals were housed in a group of 3-4 per cage. One group of 10 rats received vehicle (2 mL/Kg) orally and another set of animals received compound of the formula (I) orally for 14 days. Body weight of the animals was recorded for first three consecutive days then it was recorded twice weekly. Weighed amount of food was given to the animals and food intake was recorded every 24 hour for the entire study period.
Following compound shown positive effects indicating the decrease in the body weight gain.

In another data set the test system is Male Sprague Dawley rats. Kind of data set: DRL-72s model of animal depression. It counts as in vivo. Conditions: rat. The method, then: The antidepressant properties of compounds of this invention were evaluated using a model of animal depression: the DRL-72s model. Male Sprague Dawley rats were used as experimental animals. Rats are trained to lever press for a 4″ access to 0.025 mL of water for each correct response during daily 60 minute sessions. All testing takes place on weekdays only. At the beginning of each session, the house light is illuminated and remains lit until the session ends. No other stimuli are presented during testing. After successful lever press training, rats are then required to respond under a DRL-24 second schedule, where only lever presses that are separated by 24 seconds are reinforced. Upon stable responding on a DRL-24 second schedule (5-10 sessions), rats are trained on a DRL-72 second schedule until responding stabilizes at approximately 15% efficiency (approx 25-35 sessions). Specifically, rats receive a reinforcer for each response that is emitted at least 72 seconds after the previous response (IRT). […] Efficiency is recorded as number of reinforced responses÷total number of responses. After stable baseline responding is achieved, defined as responding for 4 consecutive sessions with no more than 10% variability, animals begin drug testing. Animals receive drug no more than 1× per week.

The target of data set [1] is Human or Rat Nicotinic Acetylcholine α4β2 receptor (UniProt P09483+P12390). Briefly: Binding assay for Human or Rat Nicotinic Acetylcholine α4β2 receptor ([3H] Cytisine). Conditions: [3H] Cytisine 2.5 nM; rat brain frontal cortex or recombinant human cDNA expressed in CHO cells. The method, then:
Binding assay for Human or Rat Nicotinic Acetylcholine α4β2 receptor
Compounds can be evaluated according to the following procedures.
Materials and Methods: • Receptor source: Rat brain frontal cortex or recombinant human cDNA expressed in CHO cells • Radioligand: [^3H] Cytisine 15-40 Ci/mmol • Final ligand concentration—[2.5 nM] • Non-specific determinant: Epibatidine-[0.1 μM] • Reference compound: Epibatidine • Positive control: Epibatidine Incubation Conditions:
Increasing concentrations of test compounds or standard were incubated with membrane receptors and radioligand in 120 mM NaCl, 2.5 mM KCl, 1 mM CaCl2, 1 mM MgCl2 and 50 mM TRIS-HCl (pH 7.4) for 60 minutes at room temperature. The reaction was terminated by rapid vacuum filtration onto the glass fiber filters. Radioactivity trapped onto the filters was determined and compared to the control values in order to ascertain any interactions of the test compound(s) with either cloned human or rat receptor binding site.
Literature Reference: Bunnelle W. H., Daanen J. F., Ryther K. B., Schrimpf M. R., Dart M. J., Gelain A., Meyer M. D., Frost J. M., Anderson D. J., Buckley M., Curzon P., Cao Y-J., Puttfarcken P., Searle X., Ji J., Putman C. B., Surowy C., Toma L. and Barlocco D. Structure-Activity Studies and Analgesic Efficacy of N-(3-Pyridinyl)-Bridged Bicyclic Diamines, Exceptionally Potent Agonists at Nicotinic Acetylcholine Receptors. J. Med. Chem. 2007, 50, […].

Data set [2] can be described thus: Rodent Brain Penetration Study. Conditions: in vivo, Wistar rat male, P.O, read-out: Steady State Brain Penetration (Cb/Cp). The method, then: Rodent Brain Penetration Study
Male Wistar rats (230-280 grams) obtained from NIN (National Institute of Nutrition, Hyderabad, India) was used as an experimental animal. Three animals were housed in each cage. Animals were given water and food ad libitum throughout the experiment, and maintained on a 12 hours light/dark cycle.
NCE compound was dissolved in water and administered orally. At Tmax (0.5, 1.0 and 2.0) animals were sacrificed to collect the plasma and brain tissue and was homogenized. Plasma and Brain was stored frozen at −20° C. until analysis. The concentrations of the NCE compound in plasma and Brain were determined using LC-MS/MS method.
The NCE compounds were quantified in plasma and brain homogenate by validated LC-MS/MS method using solid phase extraction technique. NCE compounds were quantified in the calibration range of 1-500 ng/mL in plasma and brain homogenate. Study samples were analyzed using calibration samples in the batch and quality control samples spread across the batch. Extents of brain-blood ratio were calculated (Cb/Cp).

Another data set concerns Male Wistar rats. Kind of data set: Acute Food Intake Study (animal model of hyperphagia). It counts as in vivo. Particulars: rat, oral. As to the method:
The appetite suppressing properties of compounds of this invention were studied using an animal model of hyperphagia.
Male Wistar rats (200-210 grams) obtained from Raj Biotech, India were used as experimental animals. The experiment consisted of 6 days. The rats were adapted to the 18 hour fasting and 6 hour feeding pattern. The animals were housed in a group of three in the cages provided with the fasting grills and were fasted for 18 hours. After 18 hour fasting the rats were separated and placed individually in a cage. Weighed amount of feed was provided to rats for 6 hour and the feed intake at 1, 2, 4 and 6 hours was recorded. Again the rats were regrouped and fasted for 18 hour. The above procedure was followed for 5 days. The average cumulative food intake by the rats on the last 3 days was calculated. Animals were randomised on the basis of their last three days food intake.
One group of 8 rats received vehicle (2 mL/Kg) orally and another set of animals received compound of the formula (I) orally. Then the rats were given access to food and the food intake at 1, 2, 4 and 6 hours was recorded. The food intake by the rats treated with test compound was compared with the vehicle treated group by using students ‘t’ test.
Following compound shown positive effects indicating the suppression of food intake i.e. hypophagia like effects.

As to `Cl.c1cncc(OCC2CC3CC3N2)c1` (stereo not drawn) [Example 1, 3-(Pyridin-3-yloxymethyl)-2-azabicyclo[3.1.0]hexane hydrochloride], the “% Reduction in body weight gain compared to vehicle (Day 14)” value in the data set with High Fat Fed Rats was 3.6%. Further, the Inference entry in the data set with High Fat Fed Rats and with Male Wistar rats was “Active” throughout. Moreover, in the data set with Male Sprague Dawley rats, the “Dose mg/kg, p.o. (DRL-72s)” value is “≦10 mg/kg, p.o”. For the same compound, the Ki (as a rule, a dissociation constant, usually derived from enzyme kinetics or from competition with a known ligand) in data set [1] was determined as 7.7 nM. Also, in data set [2] (15 mg/kg), the Kp turned out to be 3.8 ± 0.289. Moreover, the “% Suppression of food intake compared to vehicle” value with Male Wistar rats (1 Hour) came to 32.25%; with Male Wistar rats (2 Hour) it was 25.40%; with Male Wistar rats (4 Hour), 23.08%; with Male Wistar rats (6 Hour), 15.37%.

In the case of `Cl.Cl.Clc1cncc(OCC2CC3CC3N2)c1` (stereo not drawn) [Example 7, 3-(5-Chloropyridin-3-yloxymethyl)-2-azabicyclo[3.1.0]hexane dihydrochloride], the Ki in data set [1] is 0.19 nM. For the same compound, the Kp in data set [2] (5 mg/kg) was 3.79 ± 0.66.
